Values belong to the compound of their own block, whether it stands above or below them.
Legend:
Hepatocyte stability = conditions: rat, hepatocytes
[1] = Metabolic stability in liver microsomes (human); assay type: in vitro ADME
Description: Buffers A-C were prepared for use in the metabolic study. The buffers were as follows: Buffer A: 1.0 L of 0.1 M monobasic Potassium Phosphate buffer containing 1.0 mM EDTA; Buffer B: 1.0 L of 0.1 M Dibasic Potassium Phosphate buffer containing 1.0 mM EDTA; and Buffer C: 0.1 M Potassium Phosphate buffer, 1.0 mM EDTA, pH 7.4 by titrating 700 mL of buffer B with buffer A while monitoring with the pH meter.
Ketanserin was used as the reference compound. Reference compound and test compound spiking solutions (500 μM spiking solution) were prepared by adding 10 μL of 10 mM DMSO stock solution into 190 μL ACN. 1.5 μL of 500 μM spiking solution (0.75 mg/mL) and 18.75 μL of 20 mg/mL liver microsomes were added into 479.75 μL of Buffer C on ice.
A 6 mM NADPH stock solution was prepared by dissolving an appropriate amount of NADPH into buffer C. 30 μL of 1.5 μM spiking solution containing 0.75 mg/mL microsomes solution was dispensed to the assay plates designated for different time points (0-, 5-, 15-, 30-, 45-min) on ice. […] All the other plates were pre-incubated at 37° C. for 5 minutes. 15 μL of 6 mM NADPH stock solution was added to the plates to start the reaction and time. At 5-min, 15-min, 30-min, and 45-min, 135 μL of ACN containing internal standard were added to the wells of corresponding plates, respectively, to stop the reaction. […]

hERG potassium channel = hERG potassium channel (Homo sapiens, UniProt Q12809); test: in vitro; conditions: hERG Current Inhibition Rate (%) Mean
[2] = Chemical stability in buffer; assay type: physicochemical; conditions: PBS(Ph 7.4) 10 um, 37° C.; read-out: Chemical Stability T½
Description: 1 mM test compound spiking solution (spiking solution A) was prepared by adding 10 μL of 10 mM a test compound stock solution to 90 μL of DMSO. 396 μL of buffer were added into tubes designated for different time points. The samples were pre-warmed at 37° C. for 10 minutes. 4 μL of spiking solution A was added into the wells containing 396 μL of buffer that were designated as 0 min, 15 min, 45 min, or 60 min. The timer was started after the addition of the spiking solution. At each time point, 1200 μL of acetonitrile (ACN) containing an internal standard was added to the tubes. The samples were centrifuged at 10,000 rpm for 5 minutes and 100 μL of the supernatant was removed and analyzed by for LC-MS/MS analysis.

SD rats = test: SD rat carrageenan acute inflammation model; assay type: in vivo; conditions: for Changes in Foot Swelling Rate (Mean ± SEM) / Foot Swelling Degrees (Mean ± SEM): SD rat carrageenan
Description: Using an electronic caliper for accuracy, the thickness of the rat's footpad was measured. Rats were then restrained, and 100 μl of 1% carrageenan was subcutaneously injected into the right hind footpad to induce inflammation, thereby establishing an acute inflammation model using carrageenan. Each compound was administered in advance according to the respective dosing time points. The swelling of the rat's foot was measured at various time points: before modeling (0 h) and after modeling (2, 4, 7 h). A comparison was made between footpad swelling before and after modeling. […] The results of the carrageenan-induced acute inflammation model experiment are depicted in FIG. 1.

Sequence of hERG potassium channel (Q12809 whole entry): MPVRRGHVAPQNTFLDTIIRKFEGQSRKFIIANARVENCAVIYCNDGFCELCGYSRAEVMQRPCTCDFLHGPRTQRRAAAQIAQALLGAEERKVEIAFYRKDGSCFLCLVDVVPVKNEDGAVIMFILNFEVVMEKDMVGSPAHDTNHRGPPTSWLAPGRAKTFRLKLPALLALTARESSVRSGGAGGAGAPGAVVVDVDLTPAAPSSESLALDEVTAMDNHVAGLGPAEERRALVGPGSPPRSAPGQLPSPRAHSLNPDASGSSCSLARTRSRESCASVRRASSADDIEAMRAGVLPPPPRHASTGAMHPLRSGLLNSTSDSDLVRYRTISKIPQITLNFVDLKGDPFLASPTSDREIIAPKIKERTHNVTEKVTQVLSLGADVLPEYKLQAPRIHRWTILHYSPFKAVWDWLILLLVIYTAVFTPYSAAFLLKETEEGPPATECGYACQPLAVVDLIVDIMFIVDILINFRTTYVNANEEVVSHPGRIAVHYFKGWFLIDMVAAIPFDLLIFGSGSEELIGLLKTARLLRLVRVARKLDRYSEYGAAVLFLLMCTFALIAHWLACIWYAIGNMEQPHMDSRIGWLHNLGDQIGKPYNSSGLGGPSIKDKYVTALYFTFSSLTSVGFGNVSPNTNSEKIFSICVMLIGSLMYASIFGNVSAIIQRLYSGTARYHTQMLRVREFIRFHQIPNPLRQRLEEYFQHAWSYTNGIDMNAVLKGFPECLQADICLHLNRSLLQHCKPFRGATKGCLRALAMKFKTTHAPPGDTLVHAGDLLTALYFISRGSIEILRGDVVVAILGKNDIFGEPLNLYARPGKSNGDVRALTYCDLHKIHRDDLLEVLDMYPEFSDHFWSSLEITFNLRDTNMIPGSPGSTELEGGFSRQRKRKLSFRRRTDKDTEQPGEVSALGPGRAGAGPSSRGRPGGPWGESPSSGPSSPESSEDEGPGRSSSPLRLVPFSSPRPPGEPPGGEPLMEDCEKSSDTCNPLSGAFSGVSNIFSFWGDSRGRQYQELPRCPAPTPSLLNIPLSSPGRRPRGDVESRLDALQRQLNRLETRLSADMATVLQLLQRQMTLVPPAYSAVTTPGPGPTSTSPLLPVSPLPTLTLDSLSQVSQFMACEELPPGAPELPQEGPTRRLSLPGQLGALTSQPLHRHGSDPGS

CLint scaled at 1 μM (Hepatocyte stability): 3.17 mL/min/kg
half-life at 1 μM (Hepatocyte stability): 17.1 h
Structure (SMILES): CC(C)(NC(=O)[C@H]1[C@@H]2CNC[C@H]1C2)c1nc(C2CC2)c2ccccn12 [Compound 9, (1R,5S,6r)-N-(2-(1-cyclopropylimidazo[1,5-a]pyridin-3-yl)propan-2-yl)-3-azabicyclo[3.1.1]heptane-6-carboxamide]

Structure (SMILES): CC(C)(NC(=O)[C@H]1[C@@H]2CNC[C@H]1C2)c1ncc2c(Br)cccn12 [Compound 8, (1R,5S,6r)-N-(2-(8-bromoimidazo[1,5-a]pyridin-3-yl)propan-2-yl)-3-azabicyclo[3.1.1]heptane-6-carboxamide]
CLint scaled at 1 μM ([1]; pH 7.4): 29.5 mL/min/kg
half-life at 1 μM ([1]; pH 7.4, read-out: Metabolic stability T½): 1.4 h
inhibition at 0.3 µM (hERG potassium channel): -3.49%
inhibition at 1 µM (hERG potassium channel): -3.67%
inhibition at 3 µM (hERG potassium channel): -2.44%
inhibition at 10 µM (hERG potassium channel): -1.66%
inhibition at 30 µM (hERG potassium channel): -0.15%
half-life at 10 μM [2]: 81.3 h
Changes in Foot Swelling Rate (Mean ± SEM) (SD rats; 0 h (before modeling)): 0%
Foot Swelling Degrees (Mean ± SEM) (SD rats; 0 h (before modeling)): 4.02 ± 0.09 mm
Changes in Foot Swelling Rate (Mean ± SEM) (SD rats; 2 h after modeling): 36.28 ± 5.75%
Foot Swelling Degrees (Mean ± SEM) (SD rats; 2 h after modeling): 5.51 ± 0.13 mm
Changes in Foot Swelling Rate (Mean ± SEM) (SD rats; 4 h after modeling): 42.25 ± 2.63%
Foot Swelling Degrees (Mean ± SEM) (SD rats; 4 h after modeling): 5.78 ± 0.05 mm
Changes in Foot Swelling Rate (Mean ± SEM) (SD rats; 7 h after modeling): 34.30 ± 4.17%
Foot Swelling Degrees (Mean ± SEM) (SD rats; 7 h after modeling): 5.44 ± 0.11 mm
Anti-inflammatory effect in carrageenan model (SD rats; single subcutaneous injection of 30 mg/kg, SD rats): demonstrated anti-inflammatory tendencies
